Data from patent publication US9402821B2, “Methods and pharmaceutical compositions for treatment of cystic fibrosis” (INSERM (Institut National de la sante et de la Recherche …, priority 2012, dated 2016).

Molecular target: T1, ENaC (Homo sapiens, UniProt P37088+P51168+P51170)
T1 construct: endogenous in cells; host or cells: primary human nasal epithelial cells (HNEC)
T1 sequence (P37088 1-669): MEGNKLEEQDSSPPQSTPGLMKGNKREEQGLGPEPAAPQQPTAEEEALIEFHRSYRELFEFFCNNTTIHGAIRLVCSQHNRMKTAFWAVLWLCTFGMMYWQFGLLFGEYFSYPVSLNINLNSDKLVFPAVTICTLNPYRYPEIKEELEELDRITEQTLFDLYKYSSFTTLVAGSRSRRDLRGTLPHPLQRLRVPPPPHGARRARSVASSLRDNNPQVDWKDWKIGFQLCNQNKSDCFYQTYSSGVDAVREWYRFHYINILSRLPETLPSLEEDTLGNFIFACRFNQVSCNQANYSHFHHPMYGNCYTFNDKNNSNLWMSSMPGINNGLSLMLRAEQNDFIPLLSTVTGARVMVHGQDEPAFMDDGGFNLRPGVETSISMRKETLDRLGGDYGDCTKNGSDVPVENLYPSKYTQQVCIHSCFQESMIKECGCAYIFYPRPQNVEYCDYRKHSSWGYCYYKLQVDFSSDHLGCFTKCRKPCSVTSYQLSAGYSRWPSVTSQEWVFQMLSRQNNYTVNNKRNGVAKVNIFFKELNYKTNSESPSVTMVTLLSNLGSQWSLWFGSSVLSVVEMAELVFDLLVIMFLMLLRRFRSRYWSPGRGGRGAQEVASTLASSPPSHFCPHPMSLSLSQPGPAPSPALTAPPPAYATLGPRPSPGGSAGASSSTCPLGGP
T1 sequence (P51168 1-640): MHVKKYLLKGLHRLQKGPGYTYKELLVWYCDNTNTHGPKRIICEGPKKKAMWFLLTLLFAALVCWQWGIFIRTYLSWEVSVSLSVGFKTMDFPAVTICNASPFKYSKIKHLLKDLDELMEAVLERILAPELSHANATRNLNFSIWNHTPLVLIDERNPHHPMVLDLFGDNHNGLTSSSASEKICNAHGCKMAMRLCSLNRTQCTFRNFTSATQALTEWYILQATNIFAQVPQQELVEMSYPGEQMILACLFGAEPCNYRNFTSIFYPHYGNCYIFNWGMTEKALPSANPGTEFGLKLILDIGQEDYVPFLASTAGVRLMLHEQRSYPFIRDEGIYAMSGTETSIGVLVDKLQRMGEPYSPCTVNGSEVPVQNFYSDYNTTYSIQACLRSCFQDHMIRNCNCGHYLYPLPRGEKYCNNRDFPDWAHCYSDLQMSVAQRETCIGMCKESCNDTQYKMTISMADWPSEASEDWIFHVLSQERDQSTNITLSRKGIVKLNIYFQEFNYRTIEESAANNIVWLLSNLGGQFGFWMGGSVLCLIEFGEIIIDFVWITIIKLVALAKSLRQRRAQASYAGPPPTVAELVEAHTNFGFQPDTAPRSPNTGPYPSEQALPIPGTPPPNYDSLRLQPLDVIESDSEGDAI
T1 sequence (P51170 1-649): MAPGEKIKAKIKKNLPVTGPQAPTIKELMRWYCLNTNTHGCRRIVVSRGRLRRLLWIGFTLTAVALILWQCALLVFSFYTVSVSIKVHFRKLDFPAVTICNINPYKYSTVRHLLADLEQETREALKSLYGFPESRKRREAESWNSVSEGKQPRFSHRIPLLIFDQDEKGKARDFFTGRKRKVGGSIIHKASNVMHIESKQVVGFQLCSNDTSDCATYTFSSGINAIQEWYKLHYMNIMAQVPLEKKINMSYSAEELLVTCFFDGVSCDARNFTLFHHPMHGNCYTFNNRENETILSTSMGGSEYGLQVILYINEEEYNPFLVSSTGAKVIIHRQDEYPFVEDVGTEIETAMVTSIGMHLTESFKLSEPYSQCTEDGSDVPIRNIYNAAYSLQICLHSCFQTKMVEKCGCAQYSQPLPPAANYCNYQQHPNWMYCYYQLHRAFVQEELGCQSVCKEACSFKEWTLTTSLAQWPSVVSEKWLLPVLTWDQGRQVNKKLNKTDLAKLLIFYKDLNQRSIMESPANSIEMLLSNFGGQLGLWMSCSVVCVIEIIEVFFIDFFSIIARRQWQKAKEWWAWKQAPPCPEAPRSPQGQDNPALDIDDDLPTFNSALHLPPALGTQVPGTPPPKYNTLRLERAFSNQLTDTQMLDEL
Assay: Short circuit current, amiloride sensitive transport in HNEC
Format: cell-based
Settings: primary HNEC; 500 μM basolateral, 2 h
Method: B. Chloride activity in HeLa Wt cells was measured by MQAE assay, after 3 h of treatment by NSAID (500 μM) or diluent. CFTR activity was expressed in rate of UFA/sec, calculated by difference between ((Ft−F0)/t) with CFTR induction and ((Ft−F0)/t) without CFTR induction. […] C. Primary culture of human nasal epithelial cell (HNEC) grown on Snapwell filters (air-liquid interface) were exposed basolaterally to sulindac (500 μM) or vehicle for 2 h and immediately mounted into a voltage-clamp system to bioelectric measurements. Short circuit current was measured with addition of amiloride to evaluated amiloride sensitive transport or with forskolin and IBMX for induced cAMP-dependent Cl secretion.
Two cell models were used to the interface air-liquid model for ionic efflux assays by short circuit current and to dose the basolateral IL-8 secretion. Calu-3 are derived from lung adenocarcinoma and are able to polarized and express a high rate of endogenous CFTR. […] Transepithelial resistance and transepithelial potential difference were measured every 3 days using a microvoltmeter (World Precision Instruments, Astonbury, UK).
Cells were grown at 37° C. in a 5% CO2 incubator in DMEM with Glutamax (Invitrogen) and 10% fetal bovine serum (SVF). […] The effects of treatment in HNEC cultures on snapwell inserts were evaluated between days 10 and 16. […]

SMILES: CC1=C(CC(=O)O)c2cc(F)ccc2/C1=C\c1ccc([S+](C)[O-])cc1 (stereo not shown) [sulindac, (Z)-5-fluoro-2-methyl-1-[p-(methylsulfinyl)benzylidene]-indene-3-acetic acid]
- ENaC activity (amiloride sensitive short circuit current): not induced modification of ENaC activity
